# Measurements published in patent US12472176B2, “Pharmaceutical compositions comprising (S)-4-(4-(4-(((2-(2,6-dioxopiperidin-3-yl)-1-oxoisoindolin-4-yl)oxy)methyl)benzyl)piperazin-1-yl)-3-fluorobenzonitrile and methods of using the same” (Celgene Corporation, priority 2020, dated 2025).
# Tests used:
# [1] = Binary drug-excipient compatibility study (open dish); format: physicochemical
# Protocol: A binary drug-excipient compatibility study was conducted to identify suitable excipients for capsule formulation. Considering the low dose formulation where diluent constitutes majority of the composition, API to diluent ratio was 1:400; for other excipients, the ration was 1:50.
# Drug substance and excipients were dispensed at predetermined ratios, mixed using a vortex mixer for 30 seconds, and then dispensed into required number of vials for stability study. These vials (open dish condition) were exposed to 50° C./0% RH and 50° C./75% RH conditions for 2 and 4 weeks respectively. The control samples were stored in a refrigerator at 5° C. Selective samples were tested for chemical degradants and loss of chiral purity (conversion of S-isomer to R-isomer) after 2-weeks.
# The following are the major degradation pathways that could be shelf-life limiting: (1) hydrolysis; (2) oxidation; and (3) loss of chiral purity. The total chemical impurities and chiral impurity levels of the samples after stressing for 2-weeks and 4-weeks are compared with the control samples which are shown in FIG. 1A and FIG. 1B, respectively.
# [2] = pKa and pHmax of the HBr salt; format: physicochemical
# [3] = control sample, stored at 5° C.
smiles,measurement,setting,value
Br.N#Cc1ccc(N2CCN(Cc3ccc(COc4cccc5c4CN([C@H]4CCC(=O)NC4=O)C5=O)cc3)CC2)c(F)c1 [Compound 1 HBr],chemical impurity level,"[1]; 2-weeks exposure at 50° C./75% RH, open dish",0.35%
same,chemical impurity level,"[1]; 4-weeks exposure at 50° C./75% RH, open dish",0.77%
same,chiral impurity,"[1]; 4 weeks at 50° C./75% RH, open dish",0.4%
same,chemical impurities,[1]; [3],0.2%
same,chiral impurity,[1]; [3],0.3%
same,change in chemical impurities or chiral impurity,[1]; dry condition (50° C.),no significant change
same,pHmax,[2],4.62
same,pKa,[2],6.62
